The values below come from PMC8042122 (Scientific Reports, 2021).

“Also recorded” adds a separate entry of the source. Read-outs that look alike come from different tables or passages of the source. No end group written: not given here.

The subject of assay [1] is F. graminearum CBS185.32 strain. The format is cell-based, Fusarium graminearum.
Assay [2] has the same test system. Type of assay: cell-based, Fusarium graminearum. The source holds these as a separate data set.
Assay [3] has the same test system. The format is cell-based, Fusarium graminearum. The source holds these as a separate data set.
In assay [4] the test system is F. graminearum strain 8/1. As to conditions: cited from earlier work.
The next assay has as its system bacterial growth. As to conditions: cited from earlier work.

For “C(CH3)GNFLKRTCICVKK [TC3-CH3-1, TC3 with Cys1 capped with a methyl group]”, the “Effect on fungal growth (fungal biomass weight)” value (shortened to “Effect … (fungal biomass weight)”) in assay [1] (50 µM) was “significantly less effect”. In assay [2] (50 µM), the 15-ADON production entry was “reduction” and the “Reduction of 15-ADON production” value is “about 33%”. In addition, the DON production entry in assay [3] (50 µM) is on record as “reduction”.
“CGNFLKRTCICVKK (disulfide (positions not given here)) [TC3Ox]”: in assay [1], the “Effect on fungal growth (dry fungal biomass weight)” value is on record as “reduced effect”. The 15-ADON production result in assay [2] (25 µM) and in assay [2] (50 µM) was “significantly decreased” in each case. For the same substance, the DON production entry in assay [3] (25 µM) and in assay [3] (50 µM) was “significantly decreased” throughout.
For “CGNFLKRTCICVKK [TC3, γ-core of the Ixodes ricinus defensin DefMT3, reduced (linear) form]”, in assay [4], the Effect on germination entry was “decrease germination”. The “Effect on fungal growth (dry fungal biomass weight)” value in assay [1] is reported as “significant dose-dependent inhibition”. The “Reduction of fungal growth (fold)” value in assay [1] (50 µM) worked out at 1.8 times. Also, the 15-ADON production result is “non-significant reduction” in assay [2] (12.5 µM), “trace amounts” in assay [2] (25 µM) and “trace amounts; also recorded: abrogated” in assay [2] (50 µM). Further, the “Effect on bacterial growth” value in the assay on bacterial growth is given as “little or no effect”. The DON production entry in assay [3] (12.5 µM) is given as “non-significant reduction”; in assay [3] (25 µM), “trace amounts”; in assay [3] (50 µM) it was “trace amounts; also recorded: abrogated”.
Take “C(CH3)GNFLKRTCICVKK (disulfide) [TC3-CH3-1Ox, TC3-CH3-1 oxidized, cyclized through the non-capped Cys]”: in assay [1] (50 µM), the “Effect … (fungal biomass weight)” value is “significantly less effect”. For the same substance, in assay [2] (50 µM), the 15-ADON production result is on record as “reduction” and the “Reduction of 15-ADON production” value is on record as “about 42%”. In assay [3] (50 µM), the DON production entry is “reduction”.
In the case of “CGNFLKRTCICVKT [TC3-K14T, TC3 with Lys 14 substituted by Thr]”, the “Effect on fungal growth (dry fungal biomass weight)” value in assay [1] is “no effect”.
For the substance “C(CH3)GNFLKRTC(CH3)IC(CH3)VKK [TC3-CH3-123, TC3 with all Cys capped with CH3 groups]”, in assay [2] (50 µM), the 15-ADON production entry is listed as “significantly more”. In addition, the DON production result in assay [3] (50 µM) was “significantly more”.
As to “CGNFLKRTCIC(CH3)VKK [TC3-CH3-3, TC3 with Cys11 capped with a methyl group]”, the “Effect … (fungal biomass weight)” value in assay [1] (50 µM) is listed as “significantly less effect”.
Same read-out and setting: under “CGNFLKRTC(CH3)ICVKK [TC3-CH3-2, TC3 with Cys9 capped with a methyl group]” stands “significantly less effect”; under “CGNFLKRTC(CH3)ICVKK (disulfide) [TC3-CH3-2Ox, TC3-CH3-2 oxidized, cyclized through the non-capped Cys]”, “significantly less effect”.
With “CGNFLKRTCIC(CH3)VKK (disulfide) [TC3-CH3-3Ox, TC3-CH3-3 oxidized, cyclized through the non-capped Cys]”, the “Effect … (fungal biomass weight)” value in assay [1] (50 µM) is “significantly less effect”.
